Tested on: human Mino xenografts
Assay: IVEF study: growth inhibition of subcutaneous Mino xenografts (mantle cell lymphoma) in mice
Assay type: in vivo
Conditions: for % ΔT/C: day 53, baseline day 32
Procedure: This study evaluates the overall sensitivity of the Mino xenograft model for mantle cell lymphoma (MCL) to growth inhibition by abemaciclib. Accordingly, mice are implanted subcutaneously with human Mino xenografts treated once-daily for 28 days (QD×28) with 25 or 50 mg/kg of abemaciclib monomesylate (“compound”). In addition the response of this model to single-agent DC101, an antibody inhibitor of VEGFR2, is also evaluated as well as the combination of this antibody with abemaciclib. DC101, which is a mouse surrogate of ramucirumab, is evaluated in these studies at a dose of 20 mg/kg given twice-weekly over a period of 4 weeks (BIW×4) whereas mice in the combination group are given this dose of DC101 plus 25 mg/kg of abemaciclib. Tumor volume measurements are taken periodically to determine the effects of the various treatments on tumor growth and periodic body weight measurements are used as a general indicator of tolerability.
Female Fox Chase CB17SCID (Harlan Laboratories) mice are used for these studies. The animals are housed until they reach 18-20 […] in size.
The compound is formulated in 1% hydroxyethyl cellulose (HEC) in 25 mM phosphate buffer (PB) pH=2. The compound is formulated on a weekly basis and stored at 4° C. For the efficacy studies, the compound is administered by oral gavage once-daily for 28 days (PO, QD×28) at doses of 25 or 50 mg/kg using 0.2 ml/dose beginning on day 33 after tumor implantation. The control group is given 1% HEC vehicle according to the same schedule for the compound. The mouse surrogate for ramucirumab known as DC101 is formulated in phosphate buffered saline (PBS) and is given twice-weekly (BIW) for 4 weeks as an intraperitoneal (IP) injection at a dose of 20 mg/kg beginning on day 34. Mice in the combination group are given 25 mg/kg of the compound and 20 mg/kg of DC101 following the schedules outlined above for the monotherapy groups.
The human MCL line Mino is grown in RPMI 1640 medium+20% fetal bovine serum (FBS). Sub-confluent cells are harvested and rinsed twice with Hank's balanced saline solution (HBSS) without serum. For subcutaneous tumors, growth is initiated by subcutaneous injection of 5×10^6 cells in a 1:1 mixture of HBSS and MATRIGEL® (BD Bioscience, Franklin Lakes, N.J.) in the rear flank of each subject animal. When mean tumors volumes reach approximately 150 mm^3 in size, the animals are randomized by tumor size and body weight using a proprietary block randomization allocation tool and placed into their respective treatment groups using 7 animals per group.
Tumor size and body weight are captured using WEB DIRECTOR™. Tumor volume (V) is estimated by using the formula: V=0.536L×W^2 where L=larger of measured diameter and W=smaller of perpendicular diameter. The tumor volume data is transformed to a log scale to equalize variance across time and treatment groups. The log volume data ae analyzed with a two-way repeated measures analysis of variance by time and treatment using the MIXED procedures in SAS software (Version 9.3). The correlation model for the repeated measures is Spatial Power. Treated groups are compared to the control group at each time point. The MIXED procedure is also used separately for each treatment group to calculate adjusted means and standard errors at each time point. Both analyses accounted for the autocorrelation within each animal and the loss of data that occur when animals with large tumors are removed from the study early. The adjusted means and standard errors are plotted for each treatment group versus time.
Relative changes in tumor volume (% ΔT/C) are calculated using the tumor volume measurements taken on the day (day 53) when the control group has to be sacrificed due to tumor sizes that exceeded the threshold defined by ethical guidelines. […]

CCN1CCN(Cc2ccc(Nc3ncc(F)c(-c4cc(F)c5nc(C)n(C(C)C)c5c4)n3)nc2)CC1 [Compound, [5-(4-ethyl-piperazin-1-ylmethyl)-pyridin-2-yl]-[5-fluoro-4-(7-fluoro-3-isopropyl-2-methyl-3H-benzoimidazol-5-yl)-pyrimidin-2-yl]-amine]
% ΔT/C (25 mg/kg Compound PO QD×28, 25 mg/kg): 5.2% | % ΔT/C (25 mg/kg Compound PO QD×28, listed as compound, 25 mg/kg): approximately 5% | % ΔT/C (50 mg/kg Compound PO QD×28, negative value = % regression): −63.6% | Mean Tumor Volume (day 53, 25 mg/kg Compound PO QD×28, CB17SCID mice, subcutaneous Mino xenografts): 317.4 mm^3 | Mean Tumor Volume (day 53, 50 mg/kg Compound PO QD×28, CB17SCID mice, subcutaneous Mino xenografts): 55.4 mm^3 | mice achieved a partial response (PR) (day 53, 50 mg/kg abemaciclib, 7 of 7 mice): 100% | mean tumor volume reduced (regression) (day 53, 50 mg/kg compound): 64% | Mean Tumor Volume (day 60 (last day of dosing), 25 mg/kg Compound PO QD×28): 348.6 mm^3 | Mean Tumor Volume (day 60 (last day of dosing), 50 mg/kg Compound PO QD×28): 37.9 mm^3
